According to BindingDB's records for patent US11547697 (Millennium Pharmaceuticals, 2023):

Tests used:
[1] = molecular target: Phosphatidylinositol 4,5-bisphosphate 3-kinase catalytic subunit beta isoform (Homo sapiens, UniProt P42338); experiment: Inhibition Assay of PI3K
[2] = molecular target: T1, Phosphatidylinositol 4,5-bisphosphate 3-kinase catalytic subunit delta isoform (Homo sapiens, UniProt O00329); experiment: Inhibition Assay of PI3K
T1 sequence (O00329 whole entry): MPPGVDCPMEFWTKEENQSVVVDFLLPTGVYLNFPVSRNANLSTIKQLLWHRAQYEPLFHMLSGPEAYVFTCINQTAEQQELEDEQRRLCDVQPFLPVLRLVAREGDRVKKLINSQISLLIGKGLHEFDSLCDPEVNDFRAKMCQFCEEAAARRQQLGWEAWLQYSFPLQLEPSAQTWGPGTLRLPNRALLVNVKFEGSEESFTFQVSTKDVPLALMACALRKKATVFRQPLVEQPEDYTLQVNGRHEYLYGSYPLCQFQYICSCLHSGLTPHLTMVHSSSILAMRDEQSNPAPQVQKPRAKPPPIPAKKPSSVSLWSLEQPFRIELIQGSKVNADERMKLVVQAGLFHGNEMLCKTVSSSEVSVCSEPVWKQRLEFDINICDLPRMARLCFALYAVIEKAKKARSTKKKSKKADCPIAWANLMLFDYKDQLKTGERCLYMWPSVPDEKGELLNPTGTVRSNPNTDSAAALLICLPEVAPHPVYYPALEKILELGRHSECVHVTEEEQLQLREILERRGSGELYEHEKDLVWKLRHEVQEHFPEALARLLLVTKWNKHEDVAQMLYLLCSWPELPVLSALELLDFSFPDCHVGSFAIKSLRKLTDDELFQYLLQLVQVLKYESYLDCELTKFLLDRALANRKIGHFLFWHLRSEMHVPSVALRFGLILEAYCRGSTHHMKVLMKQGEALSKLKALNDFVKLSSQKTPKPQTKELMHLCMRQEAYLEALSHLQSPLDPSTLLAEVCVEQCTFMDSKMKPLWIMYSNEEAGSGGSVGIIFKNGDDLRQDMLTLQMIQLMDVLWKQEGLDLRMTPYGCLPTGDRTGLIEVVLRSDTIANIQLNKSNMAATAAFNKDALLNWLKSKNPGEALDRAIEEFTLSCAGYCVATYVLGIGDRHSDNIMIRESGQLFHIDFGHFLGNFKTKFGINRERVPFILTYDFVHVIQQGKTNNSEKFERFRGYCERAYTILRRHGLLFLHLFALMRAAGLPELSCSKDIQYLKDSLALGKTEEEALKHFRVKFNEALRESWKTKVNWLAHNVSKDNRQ

Phosphatidylinositol 4,5-bisphosphate 3-kinase catalytic subunit beta isoform, sequence (P42338 whole entry, canonical isoform): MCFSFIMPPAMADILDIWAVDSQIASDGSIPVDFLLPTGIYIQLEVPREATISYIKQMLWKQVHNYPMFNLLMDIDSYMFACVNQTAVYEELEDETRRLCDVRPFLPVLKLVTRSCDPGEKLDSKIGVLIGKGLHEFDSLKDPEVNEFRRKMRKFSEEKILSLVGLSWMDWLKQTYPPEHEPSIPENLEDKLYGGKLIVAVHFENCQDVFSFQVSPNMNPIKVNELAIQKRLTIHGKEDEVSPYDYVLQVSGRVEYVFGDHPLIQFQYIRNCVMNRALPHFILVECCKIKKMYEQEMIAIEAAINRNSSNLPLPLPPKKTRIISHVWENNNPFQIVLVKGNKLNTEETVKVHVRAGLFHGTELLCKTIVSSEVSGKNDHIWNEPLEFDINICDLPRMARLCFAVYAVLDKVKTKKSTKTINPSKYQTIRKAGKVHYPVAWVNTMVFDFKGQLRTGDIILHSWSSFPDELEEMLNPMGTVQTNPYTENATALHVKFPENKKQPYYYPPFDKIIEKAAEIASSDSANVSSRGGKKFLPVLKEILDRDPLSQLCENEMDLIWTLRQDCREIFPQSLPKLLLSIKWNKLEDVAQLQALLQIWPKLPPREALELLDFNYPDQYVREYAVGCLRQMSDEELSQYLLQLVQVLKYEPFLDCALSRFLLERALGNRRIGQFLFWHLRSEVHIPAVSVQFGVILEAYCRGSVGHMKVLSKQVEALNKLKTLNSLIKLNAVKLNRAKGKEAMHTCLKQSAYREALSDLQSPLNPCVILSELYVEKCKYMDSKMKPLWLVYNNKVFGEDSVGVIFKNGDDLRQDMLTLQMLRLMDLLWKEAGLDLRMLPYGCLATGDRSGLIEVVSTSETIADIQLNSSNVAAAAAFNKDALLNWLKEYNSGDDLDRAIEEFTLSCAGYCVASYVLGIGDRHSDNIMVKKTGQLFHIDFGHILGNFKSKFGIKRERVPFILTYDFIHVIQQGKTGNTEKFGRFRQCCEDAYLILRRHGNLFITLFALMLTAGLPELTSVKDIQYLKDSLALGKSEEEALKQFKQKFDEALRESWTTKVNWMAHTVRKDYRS

SMILES	IC50 [1] [µM]	IC50 [2] [µM]
CC(=O)Nc1nc2ccc(-c3ccc4nccc(-c5ccncc5)c4c3)cc2s1 [US11547697, Compound 2]	> 10	> 10
Nc1ncnc2ccc(-c3ccc4nccc(-c5ccncc5)c4c3)cc12 [US11547697, Compound 8]	> 10	–
Nc1nc2cc(-c3cc4nccc(-c5ccncc5)c4s3)ccc2o1 [US11547697, Compound 14]	> 10	> 10
Nc1noc2ccc(-c3ccc4nccc(-c5ccncc5)c4c3)cc12 [US11547697, Compound 18]	> 10	> 10
N#Cc1cnc2ccc(-c3ccc4oc(N)nc4c3)cc2c1 [US11547697, Compound 93]	> 10	> 10
Nc1nc2cc(-c3ccc4ncc(N5CCS(=O)(=O)CC5)nc4c3)ccc2o1 [US11547697, Compound 98]	> 10	> 10
C[C@@H]1CN(C(=O)c2cnc3ccc(-c4ccc5oc(N)nc5c4)cn23)C[C@H](C)O1 [US11547697, Compound 106]	> 10	> 10
Nc1nc2cc(-c3ccc4ncc(C(=O)N5CCS(=O)(=O)CC5)n4c3)ccc2o1 [US11547697, Compound 107]	> 10	> 10
Nc1nc2ccc(-c3ccc4ncc(C(=O)N5CCOCC5)n4c3)cc2s1 [US11547697, Compound 125]	> 10	–
Nc1nc2cc(-c3ccc4ncc(C(=O)N5CCN(CCO)CC5)n4c3)ccc2o1 [US11547697, Compound 148]	> 10	> 10
Nc1nc2cc(-c3ccc4ncc(C(=O)Nc5cccnc5)n4c3)ccc2o1 [US11547697, Compound 190]	> 10	–
CC(C)n1cnc2ccc(-c3ccc4oc(N)nc4c3)cc2c1=O [US11547697, Compound 206]	> 10	> 10
CC(=O)Nc1ncc(-c2ccc3oc(N)nc3c2)s1 [US11547697, Compound 235]	> 10	–
Nc1nc2cc(-c3ccc4ncn(C5CC5)c(=O)c4c3)ccc2o1 [US11547697, Compound 254]	> 10	> 10
NC(=O)[C@H]1CCCN1C(=O)c1cnc2ccc(-c3ccc4oc(N)nc4c3)cn12 [US11547697, Compound 260]	> 10	> 10
Nc1nc2cc(-c3ccc4ncc(N5CC(N6CCOCC6)C5)nc4c3)ccc2o1 [US11547697, Compound 273]	> 10	> 10
Cc1ccc(NC(=O)c2cnc3ccc(-c4ccc5oc(N)nc5c4)cn23)cn1 [US11547697, Compound 294]	> 10	–
Cc1ccn(C2CCN(C(=O)c3cnc4ccc(-c5ccc6oc(N)nc6c5)cn34)CC2)n1 [US11547697, Compound 297]	> 10	> 10
Nc1nc2cc(-c3ccc4ncc(N5CCC(n6cccn6)CC5)nc4c3)ccc2o1 [US11547697, Compound 337]	> 10	> 10
O=C(c1cnc2ccc(-c3cncc(NS(=O)(=O)c4ccccc4)c3)cn12)N1CCOCC1 [US11547697, Compound 424]	> 10	–
O=C(c1cnc2ccc(-c3cncc(NS(=O)(=O)c4ccc(F)cc4F)c3)cn12)N1CCOCC1 [US11547697, Compound 425]	> 10	–
Nc1nc2cc(-c3ccc4ncc(C(=O)N5CC[C@@H](n6cccn6)C5)n4c3)ccc2o1 [US11547697, Compound 477]	> 10	–
Nc1nc2cc(-c3ccc4ncc(C(=O)N5C6CCC5COC6)n4c3)ccc2o1 [US11547697, Compound 480]	> 10	–
C[C@H]1CCCN1C(=O)c1cnc2ccc(-c3ccc4oc(N)nc4c3)cn12 [US11547697, Compound 482]	> 10	–

Continued, values first:

IC50 [1] [µM]	IC50 [2] [µM]	SMILES
> 10	> 10	Nc1nc2cc(-c3c[nH]c4nccc(-c5ccncc5)c34)ccc2o1 [US11547697, Compound 25]
> 10	> 10	Nc1nc2cc(-c3ccc4ncc(-c5cccnc5)nc4c3)ccc2o1 [US11547697, Compound 76]
> 10	> 10	CN1CCN(C(=O)c2cnc3ccc(-c4ccc5oc(N)nc5c4)nn23)CC1 [US11547697, Compound 104]
> 10	–	CS(=O)(=O)N1CCN(C(=O)c2cnc3ccc(-c4ccc5oc(N)nc5c4)cn23)CC1 [US11547697, Compound 112]
> 10	> 10	CC(=O)N1CCN(C(=O)c2cnc3ccc(-c4ccc5oc(N)nc5c4)cn23)CC1 [US11547697, Compound 113]
> 10	> 10	Nc1nc2ccc(-c3ccc4ncc(N5CCOCC5)nc4c3)cc2s1 [US11547697, Compound 114]
> 10	> 10	C[C@@H]1CN(c2cnc3ccc(-c4ccc5oc(N)nc5c4)cc3n2)C[C@H](C)O1 [US11547697, Compound 132]
> 10	> 10	CCN1CCN(C(=O)c2cnc3ccc(-c4ccc5oc(N)nc5c4)cn23)CC1 [US11547697, Compound 141]
> 10	> 10	Nc1nc2cc(-c3ccc4ncc(C(=O)N5CCC(O)CC5)n4c3)ccc2o1 [US11547697, Compound 162]
> 10	> 10	Nc1nc2cc(-c3ccc4ncc(N5CCCCC5)nc4c3)ccc2o1 [US11547697, Compound 175]
> 10	> 10	Cc1cn(-c2cnc3ccc(-c4ccc5oc(N)nc5c4)cc3n2)cn1 [US11547697, Compound 177]
> 10	> 10	Cc1ccc(-c2cnc3ccc(-c4ccc5oc(N)nc5c4)cc3n2)cn1 [US11547697, Compound 194]
> 10	> 10	Cc1ccn(C2CCN(c3cnc4ccc(-c5ccc6oc(N)nc6c5)cc4n3)CC2)n1 [US11547697, Compound 223]
> 10	–	Nc1nc2cc(-c3ccc4ncc(N5CCN(C(=O)C6(N)CC6)CC5)nc4c3)ccc2o1 [US11547697, Compound 226]
> 10	> 10	NC(=O)[C@@H]1CCCN1C(=O)c1cnc2ccc(-c3ccc4oc(N)nc4c3)cn12 [US11547697, Compound 259]
> 10	> 10	NC(=O)[C@@H]1CCCN1C(=O)C1CN(c2cnc3ccc(-c4ccc5oc(N)nc5c4)cc3n2)C1 [US11547697, Compound 283]
> 10	> 10	Nc1nc2cc(-c3ccc4ncc(C(=O)N5CC5)n4c3)ccc2o1 [US11547697, Compound 340]
> 10	–	Nc1nc2cc(-c3ccc4ncc(N5CC(N6CCC(O)CC6)C5)nc4c3)ccc2o1 [US11547697, Compound 341]
> 10	–	COc1ncc(-c2ccc3ncc(C(=O)N4CCOCC4)n3c2)cc1NS(=O)(=O)c1ccccc1 [US11547697, Compound 420]
> 10	–	O=C(c1cnc2ccc(-c3cccc(NS(=O)(=O)c4ccc(F)cc4F)c3)cn12)N1CCOCC1 [US11547697, Compound 454]
> 10	–	Nc1nc2cc(-c3ccc4ncc(C(=O)N5CC[C@@H](F)C5)n4c3)ccc2o1 [US11547697, Compound 475]
> 10	–	Nc1nc2cc(-c3ccc4ncc(C(=O)N5CC(n6cccn6)C5)n4c3)ccc2o1 [US11547697, Compound 479]
> 10	–	Nc1nc2cc(-c3ccc4ncc(C(=O)N5CC(N6CCC(F)(F)C6)C5)n4c3)ccc2o1 [US11547697, Compound 502]
> 10	–	COc1ncc(-c2ccc3ncc(C(=O)N4CCOCC4)n3c2)c2cn[nH]c12 [US11547697, Compound 517]
